Numbers after ± are expanded uncertainties.
Assay: xn = mol fraction of the nth substance listed
Conditions: for surface tension liquid-gas: Capillary rise; for mass density / viscosity: 101 kPa, Liquid

C1COCO1 [1,3-dioxolane] + CC(C)CC(C)(C)C
Conditions	mass density, 288.15 K [kg/m3]	mass density, 298.15 K [kg/m3]	mass density, 308.15 K [kg/m3]	surface tension liquid-gas, 288.15 K [mN/m]	surface tension liquid-gas, 298.15 K [mN/m]	surface tension liquid-gas, 308.15 K [mN/m]	viscosity, 288.15 K [mPa·s]	viscosity, 298.15 K [mPa·s]	viscosity, 308.15 K [mPa·s]
x1 = 0.0501	704.03 ± 0.6	695.41 ± 0.61	686.72 ± 0.62	19.37 ± 0.12	18.57 ± 0.12	17.58 ± 0.12	0.529 ± 0.011	0.48 ± 0.011	0.431 ± 0.01
x1 = 0.1	712.38 ± 0.59	703.47 ± 0.6	694.59 ± 0.61	19.55 ± 0.12	18.75 ± 0.12	17.78 ± 0.12	0.528 ± 0.011	0.478 ± 0.011	0.432 ± 0.01
x1 = 0.15	721.22 ± 0.57	712.11 ± 0.59	703.08 ± 0.6	19.7 ± 0.12	18.92 ± 0.12	17.93 ± 0.12	0.527 ± 0.011	0.478 ± 0.011	0.432 ± 0.01
x1 = 0.2	730.61 ± 0.56	721.42 ± 0.57	712.28 ± 0.59	19.83 ± 0.12	19.07 ± 0.12	18.08 ± 0.12	0.527 ± 0.011	0.479 ± 0.011	0.433 ± 0.01
x1 = 0.25	740.66 ± 0.54	731.37 ± 0.56	722.16 ± 0.57	19.97 ± 0.12	19.2 ± 0.12	18.23 ± 0.12	0.528 ± 0.011	0.479 ± 0.011	0.433 ± 0.01
x1 = 0.3	751.51 ± 0.53	742.15 ± 0.54	732.81 ± 0.56	20.08 ± 0.12	19.33 ± 0.12	18.37 ± 0.12	0.532 ± 0.011	0.48 ± 0.011	0.433 ± 0.01
x1 = 0.35	763.25 ± 0.51	753.76 ± 0.53	744.31 ± 0.54	20.22 ± 0.12	19.47 ± 0.12	18.53 ± 0.12	0.536 ± 0.011	0.483 ± 0.011	0.434 ± 0.01
x1 = 0.4	775.92 ± 0.49	766.31 ± 0.51	756.72 ± 0.52	20.38 ± 0.12	19.63 ± 0.12	18.72 ± 0.12	0.541 ± 0.011	0.487 ± 0.011	0.438 ± 0.01
x1 = 0.45	789.66 ± 0.48	779.89 ± 0.49	770.11 ± 0.5	20.57 ± 0.12	19.82 ± 0.12	18.93 ± 0.12	0.547 ± 0.011	0.492 ± 0.011	0.442 ± 0.01
x1 = 0.5	804.59 ± 0.45	794.63 ± 0.47	784.66 ± 0.48	20.78 ± 0.12	20.03 ± 0.12	19.15 ± 0.12	0.554 ± 0.011	0.498 ± 0.011	0.447 ± 0.01
x1 = 0.55	820.88 ± 0.43	810.69 ± 0.45	800.5 ± 0.46	21.02 ± 0.12	20.3 ± 0.12	19.42 ± 0.12	0.561 ± 0.011	0.504 ± 0.011	0.453 ± 0.01
x1 = 0.6	838.7 ± 0.41	828.25 ± 0.42	817.8 ± 0.44	21.32 ± 0.12	20.6 ± 0.12	19.72 ± 0.12	0.568 ± 0.012	0.511 ± 0.011	0.46 ± 0.01
x1 = 0.65	858.32 ± 0.38	847.56 ± 0.4	836.8 ± 0.41	21.63 ± 0.13	20.93 ± 0.12	20.05 ± 0.12	0.576 ± 0.012	0.519 ± 0.011	0.467 ± 0.011
x1 = 0.7	879.84 ± 0.35	868.87 ± 0.37	857.72 ± 0.39	22 ± 0.13	21.32 ± 0.13	20.47 ± 0.12	0.585 ± 0.012	0.527 ± 0.011	0.475 ± 0.011
x1 = 0.75	903.63 ± 0.32	892.42 ± 0.34	880.96 ± 0.36	22.43 ± 0.13	21.8 ± 0.13	20.95 ± 0.13	0.595 ± 0.012	0.536 ± 0.011	0.484 ± 0.011
x1 = 0.8	929.95 ± 0.29	918.53 ± 0.31	906.76 ± 0.32	23 ± 0.13	22.4 ± 0.13	21.57 ± 0.13	0.605 ± 0.012	0.546 ± 0.011	0.494 ± 0.011
x1 = 0.85	959.26 ± 0.26	947.66 ± 0.28	935.7 ± 0.29	23.85 ± 0.13	23.32 ± 0.13	22.6 ± 0.13	0.617 ± 0.012	0.557 ± 0.011	0.505 ± 0.011
x1 = 0.9	992.11 ± 0.23	980.35 ± 0.24	968.03 ± 0.26	25.35 ± 0.13	24.9 ± 0.13	24.22 ± 0.13	0.632 ± 0.012	0.571 ± 0.012	0.515 ± 0.011
x1 = 0.95	1029.19 ± 0.27	1017.39 ± 0.26	1004.78 ± 0.24	28.33 ± 0.14	27.6 ± 0.14	26.78 ± 0.14	0.651 ± 0.012	0.584 ± 0.012	0.526 ± 0.011
x1 = 1	1071.24 ± 0.29	1059.29 ± 0.27	1046.85 ± 0.25	34.37 ± 0.15	32.55 ± 0.15	30.67 ± 0.14	0.667 ± 0.013	0.596 ± 0.012	0.535 ± 0.011

C1COCO1 [1,3-dioxolane] + CC(C)O
Conditions	mass density, 288.15 K [kg/m3]	mass density, 298.15 K [kg/m3]	mass density, 308.15 K [kg/m3]	surface tension liquid-gas, 288.15 K [mN/m]	surface tension liquid-gas, 298.15 K [mN/m]	surface tension liquid-gas, 308.15 K [mN/m]	viscosity, 288.15 K [mPa·s]	viscosity, 298.15 K [mPa·s]	viscosity, 308.15 K [mPa·s]
x1 = 0.05	802.01 ± 0.47	793.33 ± 0.48	784.33 ± 0.49	21.98 ± 0.13	21.22 ± 0.13	20.48 ± 0.13	2.285 ± 0.037	1.69 ± 0.027	1.299 ± 0.021
x1 = 0.1	814.65 ± 0.45	805.66 ± 0.46	796.38 ± 0.48	22.23 ± 0.13	21.52 ± 0.13	20.8 ± 0.13	1.846 ± 0.03	1.429 ± 0.023	1.126 ± 0.018
x1 = 0.15	827.45 ± 0.43	818.26 ± 0.44	808.69 ± 0.46	22.53 ± 0.13	21.8 ± 0.13	21.1 ± 0.13	1.564 ± 0.025	1.237 ± 0.02	0.999 ± 0.017
x1 = 0.2	840.43 ± 0.41	831.03 ± 0.43	821.18 ± 0.44	22.85 ± 0.13	22.1 ± 0.13	21.42 ± 0.13	1.371 ± 0.022	1.099 ± 0.018	0.895 ± 0.015
x1 = 0.25	853.56 ± 0.39	843.97 ± 0.41	833.89 ± 0.42	23.2 ± 0.13	22.4 ± 0.13	21.7 ± 0.13	1.221 ± 0.02	0.992 ± 0.017	0.817 ± 0.014
x1 = 0.3001	866.86 ± 0.37	857.09 ± 0.39	846.77 ± 0.4	23.57 ± 0.13	22.75 ± 0.13	22 ± 0.13	1.105 ± 0.018	0.908 ± 0.016	0.756 ± 0.014
x1 = 0.35	880.33 ± 0.35	870.34 ± 0.37	859.8 ± 0.38	23.95 ± 0.13	23.12 ± 0.13	22.33 ± 0.13	1.012 ± 0.017	0.84 ± 0.015	0.706 ± 0.013
x1 = 0.4	893.96 ± 0.33	883.74 ± 0.35	873.01 ± 0.36	24.38 ± 0.13	23.5 ± 0.13	22.7 ± 0.13	0.934 ± 0.016	0.784 ± 0.014	0.667 ± 0.013
x1 = 0.45	907.75 ± 0.31	897.31 ± 0.33	886.41 ± 0.35	24.83 ± 0.13	23.93 ± 0.13	23.12 ± 0.13	0.874 ± 0.015	0.74 ± 0.013	0.637 ± 0.012
x1 = 0.5	921.7 ± 0.29	911.08 ± 0.31	899.98 ± 0.33	25.32 ± 0.13	24.42 ± 0.13	23.55 ± 0.13	0.823 ± 0.014	0.72 ± 0.013	0.609 ± 0.012
x1 = 0.55	935.82 ± 0.27	925.02 ± 0.29	913.73 ± 0.31	25.85 ± 0.14	24.92 ± 0.13	24.03 ± 0.13	0.779 ± 0.014	0.671 ± 0.013	0.586 ± 0.012
x1 = 0.6	950.11 ± 0.25	939.14 ± 0.27	927.66 ± 0.29	26.43 ± 0.14	25.48 ± 0.13	24.55 ± 0.13	0.745 ± 0.014	0.645 ± 0.012	0.568 ± 0.012
x1 = 0.65	964.58 ± 0.23	953.43 ± 0.25	941.79 ± 0.27	27.05 ± 0.14	26.1 ± 0.14	25.15 ± 0.13	0.719 ± 0.013	0.626 ± 0.012	0.555 ± 0.011
x1 = 0.7001	979.2 ± 0.21	967.87 ± 0.23	956.09 ± 0.25	27.75 ± 0.14	26.77 ± 0.14	25.8 ± 0.13	0.697 ± 0.013	0.611 ± 0.012	0.542 ± 0.011
x1 = 0.75	994.01 ± 0.19	982.51 ± 0.21	970.57 ± 0.23	28.57 ± 0.14	27.53 ± 0.14	26.5 ± 0.14	0.682 ± 0.013	0.599 ± 0.012	0.531 ± 0.011
x1 = 0.8	1009 ± 0.2	997.36 ± 0.19	985.26 ± 0.2	29.47 ± 0.14	28.38 ± 0.14	27.28 ± 0.14	0.671 ± 0.013	0.592 ± 0.012	0.525 ± 0.011
x1 = 0.85	1024.2 ± 0.22	1012.38 ± 0.2	1000.13 ± 0.18	30.5 ± 0.14	29.33 ± 0.14	28.1 ± 0.14	0.657 ± 0.013	0.587 ± 0.012	0.52 ± 0.011
x1 = 0.9	1039.61 ± 0.25	1027.67 ± 0.23	1015.21 ± 0.21	31.63 ± 0.15	30.37 ± 0.14	28.95 ± 0.14	0.636 ± 0.012	0.585 ± 0.012	0.519 ± 0.011
x1 = 0.95	1055.25 ± 0.27	1043.29 ± 0.25	1030.71 ± 0.23	32.95 ± 0.15	31.43 ± 0.15	29.82 ± 0.14	0.635 ± 0.012	0.587 ± 0.012	0.523 ± 0.011
x1 = 1	1071.24 ± 0.29	1059.29 ± 0.27	1046.85 ± 0.25	34.37 ± 0.15	32.55 ± 0.15	30.67 ± 0.14	0.667 ± 0.013	0.596 ± 0.012	0.535 ± 0.011

Source: the NIST ThermoML archive (doi:10.1021/je800664z)
